According to patent publication US10906929B2, “Phosphoramidate nucleoside derivatives as anticancer agents” (NuCana plc, priority 2016, dated 2021):

Experiments:
Type in all cases: cell-based
NB4 = experiment: In vitro cytotoxicity, MTS assay; conditions: Homo sapiens, NB-4, 72 h, read-out: Inhibitory concentration (IC50) NB4
Method in brief: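 Cells exposed 72 h at 37° C, 5% CO2 to serial dilutions from 100 μM to 0.02 μM. MTS added for 4 h more, absorbance read at 490 nm. Viability relative to untreated cells; IC50 is the concentration giving 50% loss of viability.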

[1] = tested on: leukaemic stem cell compartment (Lin-/CD34+/CD38-/CD123+) within the KG1a cell line; experiment: Immunophenotypic identification of the leukaemic stem cell compartment; conditions: 72 h, LSC phenotype as percentage of all viable cells left, Control: 4%
Experimental: A further comparative analysis of the toxicity of compounds in the KG1a cell line over an extended dose range was carried out, and the relative effect assessed of the compounds on the leukaemic stem cell compartment within the KG1a cell line, across the entire dose range. Thus, experimental tests were performed on certain compounds of the present invention to assess their ability to target cancer stem cells in a leukaemic cell line. The acute myeloid leukaemia (AML) cell line, KG1a, was employed to assess the relative effect of compounds on the stem cell compartment. The KG1a cell line was selected because it manifests a minor stem cell-like compartment with a distinct immunophenotype (Lin^−/CD34^+/CD38^−/CD123^+).
Cells of the KG1a cell line were maintained in RPMI medium (Invitrogen, Paisley, UK) supplemented with 100 units/ml penicillin, 100 μg/ml streptomycin and 20% foetal calf serum. Cells were subsequently aliquoted (10^5 cells/100 μl) into 96-well plates and were incubated at 37° C. in a humidified 5% carbon dioxide atmosphere for 72 h in the presence of nucleoside analogues and their respective phosphoramidates at concentrations that were experimentally determined for each series of compounds. In addition, control cultures were carried out to which no drug was added. Cells were subsequently harvested by centrifugation and were analyzed by flow cytometry using the Annexin V assay.
KG1a cells were cultured for 72 h in the presence of a wide range of concentrations of each compound assayed. Cells were then harvested and labelled with a cocktail of anti-lineage antibodies (PE-cy7), anti-CD34 (FITC), anti-CD38 (PE) and anti-CD123 (PERCP cy5). The sub-population expressing a leukaemic stem cell (LSC) phenotype were subsequently identified and were expressed as a percentage of all viable cells left in the culture. […]

[2] = tested on: HL-60 Promyelocytic leukaemia; experiment: In vitro viability assay, CellTiterGlo; conditions: HL-60, CellTiterGlo, 72 h
Experimental: (§1) In vitro viability assay was performed to assess the effects of compounds on cell viability in selected cell lines over 72 h using the CellTiterGlo (CTG, Promega-G7573) assay. The tests were performed in duplicates with treatment of compounds at 9 points, 3.16 folds titration in 96 well plates over ˜72 h. The compound starting concentrations were […]. Cell viability assay using CellTiterGlo in 96-well plate were performed. Compounds were dissolved to 40 mM with thawed 100% DMSO. Compounds were serially diluted at 3.16-fold in thawed DMSO, and warmed to 37° C. before being dissolved in media (2 μl+200 μl). After compounds were dissolved in media, media containing compounds were warmed to 37° C. in incubator and then compounds in media were added to cell plates (50 μl+50 μl) in duplicates. The compounds' final concentrations were from 198 μM to 19.9 nM. Solubility of all compounds was checked and recorded again, then the plates were transferred to CO2 tissue culture incubator immediately and incubated for 3 days. DMSO final concentration is 0.5%.

[3] = tested on: KG-1 Acute myelogenous leukaemia; experiment: In vitro viability assay, CellTiterGlo; conditions: KG-1, CellTiterGlo, 72 h
Experimental: as §1

[4] = tested on: RL Non-Hodgkin's lymphoma; experiment: In vitro viability assay, CellTiterGlo; conditions: CellTiterGlo, 72 h
Experimental: as §1

[5] = tested on: HEL92.1.7 Erythroleukaemia; experiment: In vitro viability assay, CellTiterGlo; conditions: HEL92.1.7, CellTiterGlo, 72 h
Experimental: as §1

[6] = tested on: Z-138 Mantle cell lymphoma; experiment: In vitro viability assay, CellTiterGlo; conditions: Z-138, CellTiterGlo, 72 h
Experimental: as §1

[7] = Homo sapiens, read-out: EC50 (μM) Ab

Nc1nc(Cl)nc2c1ncn2[C@H]1C[C@H](O)[C@@H](CO)O1 [Cladribine, cladribine, reference compound]
IC50 (NB4): 40 nM | Stem cell % [1]: 6% | Top Inhibition (%) [2]: 85% | EC50 [2, 7]: < 0.019 µM | EC50 [3, 7]: 0.17 µM | Top Inhibition (%) [3]: 93.5% | Top Inhibition (%) [4]: 94.7% | EC50 [4, 7]: < 0.019 µM | Top Inhibition (%) [5]: 97.4% | EC50 ([5]; Homo sapiens, HEL 92.1.7, read-out: EC50 (μM) Ab): < 0.019 µM | EC50 [6, 7]: < 0.019 µM | Top Inhibition (%) [6]: 99.7%
